In patent US20110130384A1, “AMIDE COMPOUND” (TAKEDA PHARMACEUTICAL COMPANY LIMITED, priority 2008, published 2011):

Molecular target: T1, human GPR52 (Homo sapiens, UniProt Q9Y2T5)
T1 construct: expressed in transfected cells; host or cells: CHO(dhfr-) cells
Test: Increase of intracellular cAMP concentration in human GPR52-expressing CHO cell (AlphaScreen cAMP assay)
Assay type: cell-based
Conditions: 1 μM test compound, human GPR52-expressing CHO(dhfr-) cells, 37° C. for 30 min; intracellular cAMP with 1 μM Reference Example 124 = 100%, DMSO = 0%
Protocol: Increase of Intracellular cAMP Concentration in Human GPR52-Expressing CHO Cell
Using OptiPlate-384 (PerkinElmer Inc.), 1×10^4 human GPR52-expressing CHO(dhfr-) cells were incubated together with 1 μM of a test compound in an assay buffer (30 μL, HBSS (containing Ca^2+ and Mg^2+), 0.5% BSA, 100 μm IBMX, 100 μm Ro20-1724, 5 mM HEPES (pH 7.55)) at 37° C. for 30 min. Thereafter, according to the protocol of AlphaScreen cAMP Assay Kit (PerkinElmer Inc.), the intracellular cAMP concentration was measured by EnVision (PerkinElmer Inc.). The GPR52 agonist activity was calculated, assuming the intracellular cAMP concentration in the presence of 1 μM 3-(6-(2-(3,4-dimethoxyphenyl)ethoxy)pyridin-2-yl)-N-(2-pyrrolidin-1-ylethyl)benzamide (Reference Example 124) to be 100% and assuming the intracellular cAMP concentration when DMSO was added instead of the test compound to be 0%.

T1 sequence (Q9Y2T5 whole entry): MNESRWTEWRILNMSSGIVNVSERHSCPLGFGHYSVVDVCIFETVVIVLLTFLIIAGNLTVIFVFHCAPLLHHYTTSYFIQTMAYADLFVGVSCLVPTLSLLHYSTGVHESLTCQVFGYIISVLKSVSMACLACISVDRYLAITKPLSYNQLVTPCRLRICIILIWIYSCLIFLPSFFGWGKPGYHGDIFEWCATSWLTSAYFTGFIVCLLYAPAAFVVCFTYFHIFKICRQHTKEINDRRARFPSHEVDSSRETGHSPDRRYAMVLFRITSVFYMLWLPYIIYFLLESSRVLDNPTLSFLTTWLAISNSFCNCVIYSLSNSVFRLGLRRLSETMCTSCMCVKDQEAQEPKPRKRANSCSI

Compound	GPR52 agonist activity (%)
N#CCCNC(=O)c1cccc(-c2ccc3c(c2)C(c2ccc(Cl)cc2Cl)CC3)c1 (single isomer, unassigned; (+)) [Example 63, (+)-N-(2-cyanoethyl)-3-[3-(2,4-dichlorophenyl)-2,3-dihydro-1H-inden-5-yl]benzamide]	66%
N#CCCNC(=O)c1cccc(-c2ccc3c(c2)C(c2ccc(Cl)cc2Cl)CC3)c1 (single isomer, unassigned; (-)) [Example 62, (−)-N-(2-cyanoethyl)-3-[3-(2,4-dichlorophenyl)-2,3-dihydro-1H-inden-5-yl]benzamide]	81%
CN(C)CCNC(=O)c1cccc(-c2ccc3c(c2)N(c2ccc(Cl)cc2Cl)CC3)c1 [Example 1, 3-[1-(2,4-dichlorophenyl)-2,3-dihydro-1H-indol-6-yl]-N-[2-(dimethylamino)ethyl]benzamide]	87%
N#CCCNC(=O)c1cccc(-c2ccc3c(c2)N(c2ccc(Cl)cc2Cl)CC3)c1 [Example 2, N-(2-cyanoethyl)-3-[1-(2,4-dichlorophenyl)-2,3-dihydro-1H-indol-6-yl]benzamide]	69%
O=C(NCCO)c1cccc(-c2ccc3c(c2)N(c2ccc(Cl)cc2Cl)CC3)c1 [Example 3, 3-[1-(2,4-dichlorophenyl)-2,3-dihydro-1H-indol-6-yl]-N-(2-hydroxyethyl)benzamide]	71%
N#CCCNC(=O)c1cccc(-c2ccc3c(c2)N(c2cc(Cl)ccc2Cl)CC3)c1 [Example 4, N-(2-cyanoethyl)-3-[1-(2,5-dichlorophenyl)-2,3-dihydro-1H-indol-6-yl]benzamide]	75%
O=C(NCCO)c1cccc(-c2ccc3c(c2)N(c2cc(Cl)ccc2Cl)CC3)c1 [Example 5, 3-[1-(2,5-dichlorophenyl)-2,3-dihydro-1H-indol-6-yl]-N-(2-hydroxyethyl)benzamide]	75%
N#CCCNC(=O)c1cccc(-c2ccc3c(c2)N(c2ccc(Cl)c(Cl)c2)CC3)c1 [Example 6, N-(2-cyanoethyl)-3-[1-(3,4-dichlorophenyl)-2,3-dihydro-1H-indol-6-yl]benzamide]	59%
O=C(NCCO)c1cccc(-c2ccc3c(c2)N(c2ccc(Cl)c(Cl)c2)CC3)c1 [Example 7, 3-[1-(3,4-dichlorophenyl)-2,3-dihydro-1H-indol-6-yl]-N-(2-hydroxyethyl)benzamide]	67%
O=C(NCCO)c1cccc(-c2ccc3c(c2)N(c2cc(Cl)cc(Cl)c2)CC3)c1 [Example 9, 3-[1-(3,5-dichlorophenyl)-2,3-dihydro-1H-indol-6-yl]-N-(2-hydroxyethyl)benzamide]	59%
N#CCCNC(=O)c1cccc(-c2ccc3c(c2)N(c2cccc(Cl)c2Cl)CC3)c1 [Example 10, N-(2-cyanoethyl)-3-[1-(2,3-dichlorophenyl)-2,3-dihydro-1H-indol-6-yl]benzamide]	65%
O=C(NCCO)c1cccc(-c2ccc3c(c2)N(c2cccc(Cl)c2Cl)CC3)c1 [Example 11, 3-[1-(2,3-dichlorophenyl)-2,3-dihydro-1H-indol-6-yl]-N-(2-hydroxyethyl)benzamide]	74%
CN(C)CCNC(=O)c1cccc(-c2ccc3c(c2)N(Cc2ccc(Cl)cc2Cl)CC3)c1 [Example 12, 3-[1-(2,4-dichlorobenzyl)-2,3-dihydro-1H-indol-6-yl]-N-[2-(dimethylamino)ethyl]benzamide]	89%
N#CCCNC(=O)c1cccc(-c2ccc3c(c2)N(Cc2ccc(Cl)cc2Cl)CC3)c1 [Example 13, N-(2-cyanoethyl)-3-[1-(2,4-dichlorobenzyl)-2,3-dihydro-1H-indol-6-yl]benzamide]	60%
N#CCCNC(=O)c1cccc(-c2ccc3c(c2)N(Cc2cc(Cl)cc(Cl)c2)CC3)c1 [Example 15, N-(2-cyanoethyl)-3-[1-(3,5-dichlorobenzyl)-2,3-dihydro-1H-indol-6-yl]benzamide]	77%
